Measurements taken from US9394284B2, “Compounds act at multiple prostaglandin receptors giving a general anti-inflammatory response” (Allergan, Inc., priority 2010, dated 2016).

Key:
Assay type in all cases: cell-based
[1] = target: T1, human prostanoid FP receptor (Homo sapiens, UniProt P43088); assay: FLIPR Ca2+ signaling antagonist assay, FP receptor stable cell line; settings: HEK-293 EBNA stable cell line; standard agonist 17-phenyl-PGF2α; NA = inactive (no antagonism or Kb 10,000 nM); PAg, Ag not defined
T1 construct: expressed in transfected cells
T1 sequence (P43088 whole entry): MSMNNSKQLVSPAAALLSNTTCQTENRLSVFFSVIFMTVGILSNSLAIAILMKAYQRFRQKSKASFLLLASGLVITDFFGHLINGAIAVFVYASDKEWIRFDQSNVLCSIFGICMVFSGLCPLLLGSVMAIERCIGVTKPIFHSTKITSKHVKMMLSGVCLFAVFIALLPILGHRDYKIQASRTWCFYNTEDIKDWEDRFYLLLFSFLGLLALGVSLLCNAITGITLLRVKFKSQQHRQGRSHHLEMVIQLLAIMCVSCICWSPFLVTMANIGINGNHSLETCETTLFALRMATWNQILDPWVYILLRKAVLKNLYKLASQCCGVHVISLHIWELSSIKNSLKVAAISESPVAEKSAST
Description: (§1) The above compounds were tested for PG antagonist activity as follows using human recombinant prostanoid receptor (DP1, EP1-4, FP, IP and TP) stable cell lines:
(§2) In order to measure the response of Gs and Gi coupled prostanoid receptors as a Ca^2+ signal, chimeric G protein cDNAs were used. Stable cell lines over-expressing human prostanoid DP1, EP1-4, FP, IP, and TP receptors were established as follows:
(§3) Briefly, human prostanoid DP1, EP2, and EP4 receptor cDNAs were co-transfected with chimeric Gqs cDNA containing a haemagglutanin (HA) epitope; human prostanoid EP3 receptors were co-transfected with chimeric Gqi-HA; human EP1, FP, IP, and TP receptor cDNAs were expressed with no exogenous G-proteins. Gqs and Gqi chimeric cDNAs (Molecular Devices, Sunnyvale, Calif., U.S.A.), as well as cDNAs of prostanoid receptors, were cloned into a pCEP4 vector with a hygromycin B selection marker. Transfection into HEK-293 EBNA (Epstein-Barr virus nuclear antigen) cells was achieved by the FuGENE 6 transfection Reagent (Roche Applied Science, Indianapolis, Ind., USA). Stable transfectants were selected according to hygromycin resistance. Because Gqs and Gqi contained an HA epitope, G-protein expression was detected by Western blotting analysis using anti-mouse HA monoclonal antibody and horseradish peroxidase (HRP)-conjugated secondary antibody, while functional expression of prostanoid receptors was detected by FLIPR screening (Matias et al., 2004). These stable cell lines were validated using previously published antagonists at 10 μM against serial dilutions of standard agonists by FLIPR functional assays for Ca^2+ Signaling (as described below).
(§4) Ca^2+ signaling studies were performed using a FLIPR TETRA system (Molecular Devices, Sunnyvale, Calif., USA) in the 384-format. This is a high-throughput instrument for cell-based assays to monitor Ca^2+ signaling associated with GPCRs and ion channels. Cells were seeded at a density of 5×10^4 cells/well in BioCoat poly-D-lysine coated, black wall, clear bottom 384-well plates (BD Biosciences, Franklin lakes, NJ, USA) and allowed to attach overnight in an incubator at 37° C. The cells were then washed twice with HBSS-HEPES buffer (Hanks' balanced salt solution without bicarbonate and phenol red, 20 mM HEPES, pH 7.4) using an ELx405 Select CW Microplate Washer (BioTek, Winooski, Vt., USA). After 60 min of dye-loading in the dark using the Ca^2+-sensitive dye Fluo-4AM (Invitrogen, Carlsbad, Calif., USA), at a final concentration of 2×10^−6M, the plates were washed 4 times with HBSS-HEPES buffer to remove excess dye and leaving 50 μl of buffer in each well. The plates were then placed in the FLIPR TETRA instrument and allowed to equilibrate at 37° C. AGN-211377 was added in a 25 μl volume to each well to give final concentrations of 0.1 μM, 0.3 μM, 1 μM, 3 μM, 10 μM, and 30 μM; or 0.067 μM, 0.1 μM, 0.2 μM, 0.3 μM, 0.67 μM, and 1 μM for cells over-expressing TP receptors. After 4.5 minutes, a 7-point serial dilution of the standard agonist for the corresponding receptor, in a 25 μl volume was injected at the final concentrations from 10^−11M to 10^−5M in 10-fold serial dilution increments for cells expressing human recombinant DP1, EP1, EP2, EP3, EP4, FP, and IP receptors. The dose range for the standard agonist for human recombinant TP receptors was from 10^−12 M to 10^−6 M. HBSS-HEPES buffer was used as the negative control for the standard agonists. Cells were excited with LED (light emitting diode) excitation at 470-495 nm and emission was measured through an emission filter at 515-575 nm. Assay plates were read for 3.5 minutes using the FLIPR^TETRA. The peak increase in fluorescence intensity was recorded for each well. On each plate, negative controls, dose response of positive controls, and co-treatments of antagonist-agonist for each dose were in triplicates.
(§5) Standard agonists were as follows: DP=BW 245C, EP1-EP4=PGE2, FP=17-phenyl-PGF2α, IP=Cicaprost, and TP=U-46619. […]

[2] = target: T2, human prostanoid EP4 receptor (Homo sapiens, UniProt P35408); assay: FLIPR Ca2+ signaling antagonist assay, EP4 receptor stable cell line; settings: HEK-293 EBNA stable cell line; standard agonist PGE2; NA = inactive (no antagonism or Kb 10,000 nM); PAg, Ag not defined
T2 construct: expressed in transfected cells
T2 sequence (P35408 whole entry): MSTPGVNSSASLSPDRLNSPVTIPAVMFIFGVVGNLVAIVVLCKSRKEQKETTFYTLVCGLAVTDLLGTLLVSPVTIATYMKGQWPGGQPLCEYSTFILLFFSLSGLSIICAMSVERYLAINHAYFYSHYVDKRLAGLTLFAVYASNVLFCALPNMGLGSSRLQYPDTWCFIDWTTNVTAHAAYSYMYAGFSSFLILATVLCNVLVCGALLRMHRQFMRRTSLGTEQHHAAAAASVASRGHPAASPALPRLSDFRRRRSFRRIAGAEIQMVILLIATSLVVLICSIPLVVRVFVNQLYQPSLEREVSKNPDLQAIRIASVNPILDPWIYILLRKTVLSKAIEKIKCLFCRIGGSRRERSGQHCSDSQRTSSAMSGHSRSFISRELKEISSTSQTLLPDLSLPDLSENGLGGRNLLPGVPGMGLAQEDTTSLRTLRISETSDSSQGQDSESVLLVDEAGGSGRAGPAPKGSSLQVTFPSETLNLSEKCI
Description: as §1, §2, §3, §4, §5

[3] = target: T3, human prostanoid EP1 receptor (Homo sapiens, UniProt P34995); assay: FLIPR Ca2+ signaling antagonist assay, EP1 receptor stable cell line; settings: HEK-293 EBNA stable cell line; standard agonist PGE2; NA = inactive (no antagonism or Kb 10,000 nM); PAg, Ag not defined
T3 construct: expressed in transfected cells
T3 sequence (P34995 1-402): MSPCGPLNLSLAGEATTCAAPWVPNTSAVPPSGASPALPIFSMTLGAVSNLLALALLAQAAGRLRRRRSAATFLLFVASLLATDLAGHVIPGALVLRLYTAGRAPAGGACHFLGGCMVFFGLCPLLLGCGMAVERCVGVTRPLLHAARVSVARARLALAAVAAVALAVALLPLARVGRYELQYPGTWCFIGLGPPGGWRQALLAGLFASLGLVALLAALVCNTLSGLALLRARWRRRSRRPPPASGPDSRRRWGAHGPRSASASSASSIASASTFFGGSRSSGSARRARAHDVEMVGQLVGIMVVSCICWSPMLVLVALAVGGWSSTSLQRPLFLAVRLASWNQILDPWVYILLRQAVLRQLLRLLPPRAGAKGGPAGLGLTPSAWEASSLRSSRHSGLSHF
Description: as §1, §2, §3, §4, §5

[4] = target: T4, human prostanoid DP1 receptor (Homo sapiens, UniProt Q13258); assay: FLIPR Ca2+ signaling antagonist assay, DP1 receptor stable cell line; settings: HEK-293 EBNA stable cell line; standard agonist BW 245C; NA = inactive (no antagonism or Kb 10,000 nM); PAg, Ag not defined
T4 construct: expressed in transfected cells
T4 sequence (Q13258 1-359): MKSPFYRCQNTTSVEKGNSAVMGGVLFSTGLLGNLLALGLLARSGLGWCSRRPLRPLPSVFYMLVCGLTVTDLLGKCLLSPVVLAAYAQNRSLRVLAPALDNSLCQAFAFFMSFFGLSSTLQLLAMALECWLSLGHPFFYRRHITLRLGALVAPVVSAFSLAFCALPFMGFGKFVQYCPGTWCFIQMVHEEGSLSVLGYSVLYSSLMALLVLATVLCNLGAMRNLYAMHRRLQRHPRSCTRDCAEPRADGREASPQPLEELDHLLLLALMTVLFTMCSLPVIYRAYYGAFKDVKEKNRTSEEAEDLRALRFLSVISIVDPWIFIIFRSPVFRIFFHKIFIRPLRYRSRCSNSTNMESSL
Description: as §1, §2, §3, §4, §5

[5] = target: T5, human prostanoid IP receptor (Homo sapiens, UniProt P43119); assay: FLIPR Ca2+ signaling antagonist assay, IP receptor stable cell line; settings: HEK-293 EBNA stable cell line; standard agonist Cicaprost; NA = inactive (no antagonism or Kb 10,000 nM); PAg, Ag not defined
T5 construct: expressed in transfected cells
T5 sequence (P43119 whole entry): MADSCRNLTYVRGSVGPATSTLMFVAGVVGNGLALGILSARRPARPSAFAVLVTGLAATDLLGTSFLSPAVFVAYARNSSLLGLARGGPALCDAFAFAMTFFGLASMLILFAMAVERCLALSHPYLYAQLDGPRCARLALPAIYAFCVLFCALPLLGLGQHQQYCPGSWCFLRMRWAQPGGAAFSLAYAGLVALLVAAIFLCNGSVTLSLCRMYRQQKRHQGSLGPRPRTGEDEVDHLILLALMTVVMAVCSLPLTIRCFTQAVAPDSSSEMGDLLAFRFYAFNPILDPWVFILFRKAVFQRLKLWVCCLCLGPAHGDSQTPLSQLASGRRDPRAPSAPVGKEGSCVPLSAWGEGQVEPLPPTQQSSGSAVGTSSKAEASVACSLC
Description: as §1, §2, §3, §4, §5

[6] = target: T6, human prostanoid TP receptor (Homo sapiens, UniProt P21731); assay: FLIPR Ca2+ signaling antagonist assay, TP receptor stable cell line; settings: HEK-293 EBNA stable cell line; standard agonist U-46619; NA = inactive (no antagonism or Kb 10,000 nM); PAg, Ag not defined
T6 construct: expressed in transfected cells
T6 sequence (P21731 1-343): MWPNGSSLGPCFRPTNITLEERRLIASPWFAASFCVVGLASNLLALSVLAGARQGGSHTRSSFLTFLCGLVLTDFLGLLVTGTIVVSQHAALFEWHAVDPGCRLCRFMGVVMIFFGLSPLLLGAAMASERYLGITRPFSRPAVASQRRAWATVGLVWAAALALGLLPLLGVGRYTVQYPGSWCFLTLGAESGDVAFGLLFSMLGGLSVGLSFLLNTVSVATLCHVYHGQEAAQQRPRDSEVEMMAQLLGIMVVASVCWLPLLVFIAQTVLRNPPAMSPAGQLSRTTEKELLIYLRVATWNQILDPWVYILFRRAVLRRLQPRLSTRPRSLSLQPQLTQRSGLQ
Description: as §1, §2, §3, §4, §5

| SMILES | Kb [1] [nM] | Kb [2] [nM] | Kb [3] [nM] | Kb [4] [nM] | Kb [5] [nM] | Kb [6] [nM] | EP1 (FLIPR) Kb [3] | IP (FLIPR) Kb [5] | TP (FLIPR) Kb [6] |
| --- | --- | --- | --- | --- | --- | --- | --- | --- | --- |
| C/C=C(\C)COc1ccc(Br)cc1Cn1nc(CCC(=O)O)cc1C [Example 9, 3-[1-(5-Bromo-2-((E)-2-methyl-but-2-enyloxy)-benzyl)-5-methyl-1H-pyrazol-3-yl]-propionic acid] | 400 | 600 | 11 | 750 | 4800 | 2 |  |  |  |
| CCC(C)COc1ccc(Br)cc1Cn1nc(CCC(=O)O)cc1C (stereo not drawn) [Example 10, 3-[1-(5-Bromo-2-(2-methyl-butoxy)-benzyl)-5-methyl-1H-pyrazol-3-yl]-propionic acid] | 70 | 100 | 12 | 360 | 4200 | 2 |  |  |  |
| CCCCCCCOc1ccc(Br)cc1Cn1nc(CCC(=O)O)cc1C [Example 15, 3-[1-(5-Bromo-2-heptyloxybenzyl)-5-methyl-1H-pyrazol-3-yl]-propionic acid] | 500 | 8100 |  | 400 | 2000 | 500 | PAg |  |  |
| Cc1cc(CCC(=O)NS(=O)(=O)C(F)(F)F)nn1Cc1cc(Br)ccc1OCC1CCCC1 [Example 18, N-(3-{1-[5-Bromo-2-(2-cyclopentylmethoxy)-benzyl]-5-methyl-1H-pyrazol-3-yl}-propionyl)-C,C,C-trifluoro-methanesulfonamide] | 250 | 300 | 14 | 400 | 3100 | 2 |  |  |  |
| CCC(C)CCOc1ccc(Cl)cc1Cn1nc(CCC(=O)O)cc1C (stereo not drawn) [Example 22, 3-[1-(5-Chloro-2-(3-methylpentyloxy)benzyl)-5-methyl-1H-pyrazol-3-yl]-propionic acid] | 90 | 600 | 140 | 340 | 5200 | < 1 |  |  |  |
| Cc1cc(CCC(=O)O)nn1Cc1cc(Cl)ccc1OCC1CCCCC1 [Example 34, 3-[1-(5-Chloro-2-(cyclohexyl-methoxy)benzyl)-5-methyl-1H-pyrazol-3-yl]-propionic acid] | 200 | 2500 |  | 240 |  |  | Ag | Ag | Ag |
| Cc1cc(CCC(=O)O)nn1Cc1cc(Cl)ccc1OCC1(C(F)(F)F)CCC1 [Example 38, 3-[1-(5-Chloro-2-(1-trifluoromethylcyclobutylmethoxy)benzyl)-5-methyl-1H-pyrazol-3-yl]-propionic acid] | 600 | 3600 | 140 | 1900 | 6000 | 8 |  |  |  |
| CCC(CC)COc1ccc(C(F)(F)F)cc1Cn1nc(CCC(=O)O)cc1C [Example 46, 3-[1-[2-(2-Ethyl-butoxy)-5-trifluoromethyl-benzyl]-5-methyl-1H-pyrazol-3-yl]-propionic acid] | 240 | 170 | 40 | 700 | 2100 | 3 |  |  |  |
| CCC(CC)COc1ccc(C(C)(C)C)cc1Cn1nc(CCC(=O)O)cc1C [Example 49, 3-[1-[2-(2-Ethyl-butoxy)-5-tert-butyl-benzyl]-5-methyl-1H-pyrazol-3-yl]-propionic acid] | 1700 | 1800 | 40 | 270 | 2500 | 24 |  |  |  |
| COc1ccc(OCC2CCCC2)c(Cn2nc(CCC(=O)O)cc2C)c1 [Example 53, 3-[1-(2-Cyclopentylmethoxy-5-methoxy-benzyl)-5-methyl-1H-pyrazol-3-yl]-propionic acid] | 1900 | 1890 | 600 | 1500 | 6900 | 700 |  |  |  |
| CCC(CC)COc1ccc(Br)cc1Cn1ccc(CCC(=O)O)n1 [Example 59, 3-{1-[5-Bromo-2-(2-ethyl-butoxy)-benzyl]-1H-pyrazol-3-yl}-propionic acid] | 1200 | 100 | 160 | 300 | 2700 | 1 |  |  |  |
| CCC(CC)COc1ccc(C#N)cc1Cn1nc(CCC(=O)O)cc1C [Example 60, 3-{1-[5-Cyano-2-(2-ethyl-butoxy)-benzyl]-5-methyl-1H-pyrazol-3-yl}-propionic acid] | 1400 | 2400 | 2100 | 4400 | 5400 | 120 |  |  |  |
| CCC(CC)COc1ccc(-c2ccccc2)cc1Cn1nc(CCC(=O)O)cc1C [Example 63, 3-{1-[4-(2-Ethyl-butoxy)-biphenyl-3-ylmethyl]-5-methyl-1H-pyrazol-3-yl}-propionic acid] | 60 | 4000 | 700 | 170 | 2200 |  |  |  | PAg |
